Data as given in patent US10081629B2, “Amide derivatives and pharmaceutically acceptable salts thereof, preparation method thereof and medicinal application thereof” (Shanghai Hengrui Pharmaceutical Co., Ltd., priority 2014, dated 2018).

Experiments:
[1] = system: secretion of PGE2 by A549 cells stimulated with IL-1β; test: Inhibition of the secretion of PGE2 by A549 cells stimulated with IL-1β; type: cell-based; conditions: Homo sapiens, IL-1β 0.2 ng/mL
Text: The method described here was used for determining the inhibition activity of the present compounds on the secretion of PGE2 by A549 cells stimulated with IL-1β.
• 1. PGE2 Assay kit (Cisbio, #62P2APEB) • 2. IL-1β (Peprotech, # AF-200-01B) • 3. Cell line: A549 (ATCC: CCL-185) • 4. FlexStation3 microplate reader. II. Experimental Procedure
On the first day, A549 cells were inoculated in a 96-well plate at 40000/well. On the second day, the culture medium in the 96-well plate was removed and then added with 90 μL of compound diluted with culture medium (the concentration of each compound at seven gradient concentrations was 11111 nM, […], 1.11 nM, 0.11 nM and 0.011 nM). The cells were incubated for 30 minutes at 37° C. in an incubator, and then added with IL-1β to a final concentration of 0.2 ng/mL. Then, the cells were incubated for another 24 hours at 37° C. On the third day, 10 μl of supernatant, 5 μL of PGE2-d2 and 5 μL of anti-PGE2 Cryptate were added into a black 384-well plate, and then incubated at 4° C. overnight. HTRF was determined using Flexstation, and the IC50 of the compounds was obtained by data processing software.
The inhibition activity of the present compounds on the secretion of PGE2 by A549 cells stimulated with IL-1β was determined by the assay described above.

human mPGES1 = human mPGES1 (Homo sapiens (Human), UniProt O14684); test: Inhibition activity for human mPGES1 (enzyme assay, PGE2 HTRF); type: biochemical; conditions: membrane protein from HEK-293 F transfected with human mPGES1
Procedure: The method described here is used for determining the inhibition activity of the present compounds for human mPGES1.
• 1. PGE2 Assay kit (Cisbio, #62P2APEB) • 2. Prostaglandin H2 (Sigma, #P7867-1MG) • 3. FlexStation3 microplate reader. II. Experimental Procedure • 1. Obtaining the membrane proteins of mPGES1 enzyme
The cell density of HEK-293 F was grown to 6×10^5 per milliliter and was transferred with the plasmid containing human mPGES1 gene by transfection reagent PEI the next day. The cells were continuously cultured for 72 hours at 37° C. with shaking. After centrifuging at 1100 g for 5 minutes, the cells were harvested. After ultrasonication in an ice bath and centrifugation at 5000 g for 10 minutes, the supernatant was obtained. The supernatant was centrifuged at 100000 g for 1 hour to obtain a precipitate. The precipitate was resuspended with storage buffer containing 10% glycerinum, subpackaged and frozen rapidly under liquid nitrogen, and stored at −80° C. • 2. mPGES1 enzyme assay
mPGES1 was diluted with assay buffer and added into plate at 49 μL/well supplemented with 1 μL of compound (the final concentration of each compound at seven gradient concentrations was 10000 nM, 1000 nM, 100 nM, 10 nM, 1 nM, 0.1 nM and 0.01 nM). […] Then, each well was added with 53.8 μL of 6 mg/mL SnCl2 to quench the reaction. The sample was diluted with dilute buffer at 1:400. 10 μl of diluted sample, 5 μL PGE2-d2 and 5 μL anti-PGE2 Cryptate were added to a black 384-well plate, and incubated at 4° C. overnight. HTRF was determined using Flexstation, and the IC50 of the compounds was obtained by data processing software.
The inhibition activity of the present compounds on mPGES1 was tested by the assay described above.

[2] = Pharmacokinetics assay in rats; type: in vivo; conditions: both sexes, Sprague-Dawley, rat, plasma, po, SD rats, intragastric, 5 mg/kg; for Vd/F: read-out: Apparent Distribution Volume Vz/F; for AUC: read-out: Area Under Curve AUC; for CL/F: read-out: Clearance CLz/F; for half-life: read-out: Half-Life T½ (converted); for MRT: read-out: Mean Residence Time MRT; for Cmax: read-out: Plasma Conc. Cmax
Procedure: Rats were used as test animals. The drug concentration in plasma at different time points was determined by LC/MS/MS after administration of the compounds of Example 8, Example 11, Example 14, Example 17, Example 20, Example 27, Example 33, Example 35, Example 36, Example 37 and Example 48 to rats. The pharmacokinetic behavior of the present compounds was studied and evaluated in rats.
Forty four (44) healthy adult Sprague-Dawley (SD) rats, half male and half female, which were purchased from SINO-BRITSH SIPPR/BK LAB. ANIMAL LTD., CO, with Certificate No.: SCXK (Shanghai) 2008-0016, were divided into 11 groups, with 4 rats in each group.
The appropriate amount of test compounds was weighed, and mixed with 25 μL Tween 80 and Labrasol to prepare a 0.6 mg/mL suspension by ultrasonication.
After an overnight fast, 44 SD rats, half male and half female, were divided into 11 groups, and administered intragastrically at a dose of 5.0 mg/kg and an administration volume of 10 mL/kg.
Blood (0.1 mL) was sampled from the orbital sinus before administration and 0.5 h, 1.0 h, 2.0 h, 4.0 h, 6.0 h, 8.0 h, 11.0 h, and 24.0 h after administration. The samples were stored in EDTA anticoagulation tubes, and centrifuged for 5 minutes at 3,500 rpm to separate the blood plasma. The plasma samples were stored at −20° C. The rats were fed 2 hours after administration.
The plasma concentration of the test compounds in rat after intragastric administration was determined by LC-MS/MS. The linearity of the method is 5.00-2000 ng/mL and 1.00-2000 ng/ml, and the minimum of quantification is 5.00 ng/mL and 1.00 ng/mL.
Plasma samples were analyzed after pretreatment by protein precipitation.

human mPGES1, sequence (O14684 whole entry): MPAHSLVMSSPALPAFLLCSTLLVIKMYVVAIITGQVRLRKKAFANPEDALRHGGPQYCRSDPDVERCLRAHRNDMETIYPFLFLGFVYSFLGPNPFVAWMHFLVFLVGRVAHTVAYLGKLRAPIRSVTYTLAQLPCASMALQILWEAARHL

CC(C)(F)C(=O)NCc1cnc(C(F)F)c(C(=O)Nc2ccc3oc(-c4cccc(C(F)(F)F)c4)cc3c2)c1 [Example 48, 2-(Difluoromethyl)-5-(((2-fluoro-2-methyl-propanoyl)amino)methyl)-N-(2-(3-(trifluoromethyl)phenyl)benzofuran-5-yl)nicotinamide]
IC50 ([1]; A549, 24 hours): 14.1 nM | IC50 (human mPGES1): 3.58 nM | Vd/F [2]: 7.53 ± 1.69 L/kg | AUC [2]: 2260 ± 767 ng·h/mL | CL/F [2]: 41 ± 16.7 mL/min/kg | half-life [2]: 2.3 ± 0.76 h | MRT [2]: 6.3 ± 1.62 h | Cmax [2]: 263 ± 66 ng/mL

Cn1c(-c2cccc(Cl)c2)cc2cc(NC(=O)c3cc(CNC(=O)C(C)(C)F)cnc3C(F)F)ncc21 [Example 36, N-(2-(3-Chlorophenyl)-1-methyl-1H-pyrrolo[2,3-c]pyridin-5-yl)-2-(difluoromethyl)-5-(((2-fluoro-2-methyl-propanoyl)amino)methyl)nicotinamide]
IC50 ([1]; A549, 24 hours): 13.2 nM | IC50 (human mPGES1): 4.19 nM | Vd/F [2]: 7.22 ± 1.34 L/kg | AUC [2]: 3540 ± 1970 ng·h/mL | CL/F [2]: 30.4 ± 17 mL/min/kg | half-life [2]: 3.69 ± 2.4 h | MRT [2]: 6.56 ± 3.01 h | Cmax [2]: 459 ± 157 ng/mL

Cn1c(-c2cccc(Cl)c2)cc2cc(NC(=O)c3cc(CNC(=O)C(C)(C)F)cnc3C(F)F)ccc21 [Example 33, N-(2-(3-Chlorophenyl)-1-methyl-1H-indol-5-yl)-2-(difluoromethyl)-5-(((2-fluoro-2-methyl-propanoyl)amino)methyl)nicotinamide]
IC50 ([1]; A549, 24 hours): 12.8 nM | IC50 (human mPGES1): 5.33 nM | Vd/F [2]: 4.82 ± 0.961 L/kg | AUC [2]: 5720 ± 1210 ng·h/mL | MRT [2]: 7.6 ± 1.09 h | Cmax [2]: 557 ± 80 ng/mL

CCn1c(-c2ccc(F)cc2)cc2cc(NC(=O)c3cc(CNC(=O)C(C)(C)C)ccc3Cl)ccc21 [Example 8, 2-Chloro-N-(1-ethyl-2-(4-fluorophenyl)-1H-indol-5-yl)5-((2,2-dimethylpropanoylamino)methyl)-benzamide]
IC50 ([1]; A549, 24 h): 19.1 nM | IC50 (human mPGES1): 3.88 nM | Vd/F [2]: 10.5 ± 4.66 L/kg | AUC [2]: 2900 ± 1340 ng·h/mL | CL/F [2]: 32.7 ± 13.1 mL/min/kg | half-life [2]: 4.69 ± 3.74 h | MRT [2]: 8.21 ± 4.88 h | Cmax [2]: 346 ± 155 ng/mL

CCn1c(-c2cccc(Cl)c2)cc2nc(NC(=O)c3cc(CNC(=O)C(C)(C)F)cnc3C(F)F)ccc21 [Example 37, N-(2-(3-Chlorophenyl)-1-ethyl-1H-pyrrolo[3,2-b]pyridin-5-yl)-2-(difluoromethyl)-5-(((2-fluoro-2-methyl-propanoyl)amino)methyl)nicotinamide]
IC50 ([1]; A549, 24 hours): 22.4 nM | IC50 (human mPGES1): 6.46 nM | Vd/F [2]: 1.39 ± 0.17 L/kg | AUC [2]: 23200 ± 14200 ng·h/mL | CL/F [2]: 5.44 ± 4.31 mL/min/kg | half-life [2]: 4.49 ± 2.93 h | MRT [2]: 7.34 ± 3.76 h | Cmax [2]: 2350 ± 676 ng/mL

Cn1c(-c2ccc(F)cc2)cc2cc(NC(=O)c3cc(CNC(=O)C(C)(C)C)ccc3Cl)ccc21 [Example 11, 2-chloro-N-(2-(4-fluorophenyl)-1-methyl-1H-indol-5-yl)-5-((2,2-dimethylpropanoylamino)methyl)benzamide]
IC50 ([1]; A549, 24 hours): 16.3 nM | IC50 (human mPGES1): 5.14 nM | Vd/F [2]: 5.83 ± 1.14 L/kg | AUC [2]: 7230 ± 5320 ng·h/mL | CL/F [2]: 19.2 ± 14.1 mL/min/kg | half-life [2]: 5.27 ± 3.25 h | MRT [2]: 10.4 ± 5.1 h | Cmax [2]: 572 ± 167 ng/mL

Cn1c(-c2ccc(Cl)cc2)cc2cc(NC(=O)c3cc(CNC(=O)C(C)(C)F)cnc3C(F)F)ccc21 [Example 14, N-(2-(4-Chlorophenyl)-1-methyl-1H-indol-5-yl)-2-(difluoromethyl)-5-(((2-fluoro-2-methyl-propanoyl)amino)methyl)nicotinamide]
IC50 ([1]; A549, 24 h): 20.5 nM | IC50 (human mPGES1): 4.59 nM | Vd/F [2]: 17.9 ± 3.12 L/kg | AUC [2]: 1790 ± 984 ng·h/mL | CL/F [2]: 56.7 ± 25.4 mL/min/kg | half-life [2]: 4.15 ± 1.59 h | MRT [2]: 9.25 ± 2.24 h | Cmax [2]: 150 ± 56 ng/mL

CCn1c(-c2cccc(Cl)c2)cc2cc(NC(=O)c3cc(CNC(=O)C(C)(C)F)cnc3C(F)F)ccc21 [Example 20, N-(2-(3-Chlorophenyl)-1-ethyl-1H-indol-5-yl)-2-(difluoromethyl)-5-(((2-fluoro-2-methyl-propanoyl)amino)methyl)nicotinamide]
IC50 ([1]; A549, 24 hours): 12.6 nM | IC50 (human mPGES1): 3.54 nM | Vd/F [2]: 5.41 ± 1.81 L/kg | AUC [2]: 8240 ± 2280 ng·h/mL | CL/F [2]: 10.7 ± 2.7 mL/min/kg | half-life [2]: 5.94 ± 2 h | MRT [2]: 11.1 ± 3 h | Cmax [2]: 681 ± 195 ng/mL

COCCn1c(-c2ccc(C(F)(F)F)cc2)cc2cc(NC(=O)c3cc(CNC(=O)C(C)(C)F)cnc3C(F)F)ccc21 [Example 27, 2-(Difluoromethyl)-5-(((2-fluoro-2-methyl-propanoyl)amino)methyl)-N-(1-(2-methoxyethyl)-2-(4-(trifluoromethyl)phenyl)-1H-indol-5-yl)nicotinamide]
IC50 ([1]; A549, 24 hours): 13.4 nM | IC50 (human mPGES1): 4.77 nM | Vd/F [2]: 15.1 ± 1.53 L/kg | AUC [2]: 1180 ± 247 ng·h/mL | CL/F [2]: 73.3 ± 15.3 mL/min/kg | half-life [2]: 2.46 ± 0.59 h | MRT [2]: 5.32 ± 1.03 h | Cmax [2]: 193 ± 23 ng/mL
